Data taken from patent US4237135A, “2-(4-Ethyl-1-piperazinyl)-4-phenylquinoline, process for preparation thereof, and composition thereof” (Dainippon Pharmaceutical Co., Ltd., priority 1978, dated 1980).

Assays:
[1] = system: brain 3-methoxy-4-hydroxyphenylethylene glycol sulfate (MOPEG-SO4); test: Effect on brain monoamine metabolites: MOPEG-SO4; type: in vivo, male Wistar strain rats; conditions: 100 mg/kg p.o.; for Brain MOPEG-SO4, % of control: *P<0.01
Protocol: Each test compound was given orally to the rats in a dose of 100 mg/kg and, 1, 3 and 6 hours later the rats were sacrificed. […] The concentrations of the monoamine metabolites were calculated in terms of ng/g wet brain tissue and expressed as % of the concentrations of controls receiving saline.

[2] = Acute toxicity; conditions: mouse, in vivo, 7 days observation
Protocol: (§1) Male STD-ddY strain mice, weighing 20-25 g, were used. Each test compound was given orally or intraperitoneally to the mice (each group: 10 mice) in 5 to 7 different doses, and their mortality was examined during the observation period of 7 days. The median lethal dose (LD50) was calculated for each compound by the probit method.

[3] = system: mice; test: Acute toxicity; conditions: mouse, in vivo
Protocol: as §1

[4] = system: ptosis induced by tetrabenazine; test: Anti-tetrabenazine activity: antagonistic effect on ptosis induced by tetrabenazine; type: in vivo, male STD-ddY strain mice; conditions: Mus musculus, po; tetrabenazine 70 mg/kg i.p.; Table 2
Protocol: Pharmacological experiments have been done on the compound of the present invention, some known and novel analogous compounds and an antidepressant on the market, as mentioned below. In the experiments, ED50 was calculated by Litchfield-Wilcoxon method. Male STD-ddY strain mice, weighing 20-25 g, were used in groups of 10 mice each. […] Two hours after the tetrabenazine injection, the degree of eyelid closure (ptosis) was assessed on the basis of macroscopic scoring (0: no closure of the eyelid, 1: 1/4 closure, 2: 2/4 closure, 3: 3/4 closure and 4: complete closure), essentially according to the method of P. A. J. Janssen [Arzneim. Forsch. 15, 104 (1965)]. ED50 was calcuated for each compound.

What does the source list for `CCN1CCN(c2cc(-c3ccccc3)c3ccccc3n2)CC1.Cl.Cl` [A, 2-(4-Ethyl-1-piperazinyl)-4-phenylquinoline dihydrochloride]?
Brain MOPEG-SO4 concentration / noradrenaline turnover (in words) [1]: significant decrease in brain MOPEG-SO4 concentration; Brain MOPEG-SO4, % of control ([1]; 1 hour): 82 % of control; Brain MOPEG-SO4, % of control ([1]; 3 hours): 70 % of control; Brain MOPEG-SO4, % of control ([1]; 6 hours): 63 % of control; LD50 at 168 h ([2]; ip): 119 mg/kg; LD50 at 168 h ([2]; po): 568 mg/kg; Acute toxicity (in words) [3]: comparable to or somewhat weaker than that of imipramine; ED50 [4]: 1.8 mg/kg
